Structure (SMILES) | melting point [°C]
CC(C)(C)c1cc(CNC(=O)c2cccnc2Oc2cccnc2)cc(C(C)(C)C)c1O [Example 34, N-(3,5-Di-tert-butyl-4-hydroxy-benzyl)-2-(pyridin-3-yloxy)-nicotinamide] | 42 to 44
CC(NC(=O)c1cccnc1Oc1cncc(Cl)c1)c1ccc(Cl)s1 (centres unmarked) [Example 49, 2-(5-Chloro-pyridin-3-yloxy)-N-[1-(5-chloro-thiophen-2-yl)-ethyl]-nicotinamide] | 110 to 112
Cc1ccc(C(C)NC(=O)c2cccnc2Oc2cncc(Cl)c2)s1 (centres unmarked) [Example 50, 2-(5-Chloro-pyridin-3-yloxy)-N-[1-(5-methyl-thiophen-2-yl)-ethyl]-nicotinamide] | 75 to 77
Cc1ccsc1CNC(=O)c1cccnc1Oc1cncc(Cl)c1 [Example 54, 2-(5-Chloro-pyridin-3-yloxy)-N-(3-methyl-thiophen-2-ylmethyl)-nicotinamide] | 115 to 117
O=C(NCC1CCCCC1)c1cccnc1Oc1cncc(Cl)c1 [Example 58, 2-(5-Chloro-pyridin-3-yloxy)-N-cyclohexylmethyl-nicotinamide] | 95 to 97
CC(C)(O)c1ccc(CNC(=O)c2cccnc2Oc2cncc(Cl)c2)cc1 [Example 59, 2-(5-Chloro-pyridin-3-yloxy)-N-[4-(1-hydroxy-1-methyl-ethyl)-benzyl]-nicotinamide] | 78 to 80
CC(C)(O)c1cc(Cl)c(CNC(=O)c2cccnc2Oc2cncc(Cl)c2)s1 [Example 60, N-[3-Chloro-5-(1-hydroxy-1-methyl-ethyl)-thiophen-2-ylmethyl]-2-(5-chloro-pyridin-3-yloxy)-nicotinamide] | 72 to 74
O=C(NCc1ccc(Cl)o1)c1cccnc1Oc1ccc(F)cc1 [Example 63, N-(5-Chloro-furan-2-ylmethyl)-2-(4-fluoro-phenoxy)-nicotinamide] | 116 to 118
O=C(NCc1cc2ccccc2s1)c1cccnc1Oc1ccc(F)cc1 [Example 65, N-Benzo[b]thiophen-2-ylmethyl-2-(4-fluoro-phenoxy)-nicotinamide] | 109 to 111
O=C(NCc1c(F)cc(F)cc1F)c1cccnc1Oc1ccc(F)cc1 [Example 67, 2-(4-Fluoro-phenoxy)-N-(2,4,6-trifluoro-benzyl)-nicotinamide] | 128 to 130
O=C(NCc1scc(Cl)c1Cl)c1cccnc1Oc1ccc(F)cc1 [Example 68, N-(3,4-Dichloro-thiophen-2-ylmethyl)-2-(4-fluoro-phenoxy)-nicotinamide] | 132 to 134
O=C(NCc1sccc1Cl)c1cccnc1Oc1ccc(F)cc1 [Example 69, N-(3-Chloro-thiophen-2-ylmethyl)-2-(4-fluoro-phenoxy)-nicotinamide] | 134 to 136
O=C(NCc1ccccc1Cl)c1cccnc1OCc1ccc(F)cc1 [Example 70, N-(2-Chloro-benzyl)-2-(4-fluoro-benzyloxy)-nicotinamide] | 64 to 66
O=C(NCc1ccc([N+](=O)[O-])cc1)c1cccnc1Oc1ccc(F)cc1 [Example 72, 2-(4-Fluoro-phenoxy)-N-(4-nitro-benzyl)-nicotinamide] | 155 to 157
O=C1Cc2cc(CNC(=O)c3cccnc3Oc3ccc(F)cc3)ccc2N1 [Example 73, 2-(4-Fluoro-phenoxy)-N-(2-oxo-2,3-dihydro-1H-indol-5-ylmethyl)-nicotinamide] | 180 to 182
O=C(Nc1ccc2[nH]c(=O)oc2c1)c1cccnc1Oc1ccc(F)cc1 [Example 74, 2-(4-Fluoro-phenoxy)-N-(2-oxo-2,3-dihydro-benzooxazol-6-yl)-nicotinamide] | 289 to 291
CCOC(=O)c1cc2cc(CNC(=O)c3cccnc3Oc3ccc(F)cc3)ccc2[nH]1 [Example 75, 5-({[2-(4-Fluoro-phenoxy)-pyridine-3-carbonyl]-amino}-methyl)-1H-indole-2-carboxylic acid ethyl ester] | 185 to 187
CC(C)(C)c1cc(CNC(=O)c2cccnc2Oc2ccc(F)cc2)cc(C(C)(C)C)c1O [Example 76, N-[3,5-Di-tert-butyl-4-hydroxy-benzyl)-2-(4-fluoro-phenoxyl)nicotinamide] | 45 to 47
Cc1cc(CNC(=O)c2cccnc2Oc2ccc(F)cc2)cc(C)c1O [Example 78, 2-(4-Fluoro-phenoxy)-N-(4-hydroxy-3,5-dimethyl-benzyl)-nicotinamide] | 142 to 144
CC(C)(O)c1ccc(CNC(=O)c2cccnc2Oc2ccc(F)cc2)o1 [Example 79, 2-(4-Fluoro-phenoxy)-N-[5-(1-hydroxy-1-methyl-ethyl)-furan-2-ylmethyl]-nicotinamide] | 88 to 90
CCC(O)(CC)c1ccc(CNC(=O)c2cccnc2Oc2ccc(F)cc2)s1 [Example 80, N-[5-(1-Ethyl-1-hydroxy-propyl)-thiophen-2-ylmethyl]-2-(4-fluoro-phenoxy)-nicotinamide] | 95 to 97
CC(C)(O)c1sc(CNC(=O)c2cccnc2Oc2ccc(F)cc2)cc1Cl [Example 81, N-[4-Chloro-5-(1-hydroxy-1-methyl-ethyl]-thiophen-2-ylmethyl]-2-(4-fluoro-phenoxy)-nicotinamide] | 115 to 117
CC(NC(=O)c1cccnc1Oc1ccc(F)cc1)c1ccc(Br)cc1 (centres unmarked) [Example 82, N-[1-(4-Bromo-phenyl)-ethyl]-2-(4-fluoro-phenoxy)-nicotinamide] | 120 to 122
CC(C)(O)c1cc(Cl)c(CNC(=O)c2cccnc2Oc2ccc(F)cc2)s1 [Example 84, N-[3-Chloro-5-(1-hydroxy-1-methyl-ethyl)-thiophen-2-ylmethyl]-2-(4-fluoro-phenoxy)-nicotinamide] | 85 to 87

Next, values leading:

melting point [°C] | Structure (SMILES)
62 to 64 | COc1ccc(CNC(=O)c2cccnc2Oc2cccnc2)cc1 [Example 29, N-(4-Methoxy-benzyl)-2-(pyridin-3-yloxy)-nicotinamide]
122 to 124 | O=C(NCc1ccc(C(F)(F)F)s1)c1cccnc1Oc1cccnc1 [Example 30, 2-(Pyridin-3-yloxy)-N-(5-trifluoromethyl-thiophen-2-ylmethyl)-nicotinamide]
99 to 101 | O=C(NCc1ccc(F)s1)c1cccnc1Oc1cccnc1 [Example 32, N-(5-Fluoro-thiophen-2-ylmethyl)-2-(pyridin-3-yloxy)-nicotinamide]
109 to 111 | O=C1Cc2cc(CNC(=O)c3cccnc3Oc3cccnc3)ccc2N1 [Example 33, N-(2-Oxo-2,3-dihydro-1H-indol-5-ylmethyl)-2-(pyridin-3-yloxy)-nicotinamide]
79 to 81 | CC(C)(O)c1ccc(CNC(=O)c2cccnc2Oc2cccnc2)cc1 [Example 36, N-[4-(1-Hydroxy-1-methyl-ethyl)-benzyl]-2-(pyridin-3-yloxy)-nicotinamide]
125 to 127 | COC(=O)c1ccc(CNC(=O)c2cccnc2Oc2cccnc2)cc1 [Example 37, 4-({[2-(Pyridin-3-yloxy)-pyridine-3-carbonyl]-amino}-methyl)-benzoicacid methyl ester]
139 to 141 | CC(C)(O)c1ccc(CNC(=O)c2cccnc2Oc2cccnc2)cc1Cl [Example 38, N-[3-Chloro-4-(1-hydroxy-1-methyl-ethyl)-benzyl]-2-(pyridin-3-yloxy)-nicotinamide]
134 to 136 | O=C(NCc1ccc2c(c1)OCCC2O)c1cccnc1Oc1cccnc1 (centres unmarked) [Example 41, N-(4-Hydroxy-chroman-7-ylmethyl)-2-(pyridin-3-yloxy)-nicotinamide]
116 to 118 | O=C(NCc1ccc(C2(O)CCC2)cc1)c1cccnc1Oc1cccnc1 [Example 42, N-[4-(1-Hydroxy-cyclobutyl)-benzyl]-2-(pyridin-3-yloxy)-nicotinamide]
74 to 76 | CC(C)(O)c1cc(Cl)c(CNC(=O)c2cccnc2Oc2cccnc2)s1 [Example 44, N-[3-Chloro-5-(1-hydroxy-1-methyl-ethyl)-thiophen-2-ylmethyl]-2-(pyridin-3-yloxy)-nicotinamide]
90 to 92 | CC(NC(=O)c1cccnc1Oc1cccnc1)c1cccs1 (centres unmarked) [Example 45, 2-(Pyridin-3-yloxy)-N-(1-thiophen-2yl-ethyl)-nicotinamide]
119 to 121 | Cc1ccc(CNC(=O)c2cccnc2Oc2cncc(Cl)c2)cc1 [Example 48, 2-(5-Chloro-pyridin-3-yloxy)-N-(4-methyl-benzyl)-nicotinamide]
125 to 127 | O=C(NCc1ccc(Cl)s1)c1cccnc1Oc1cncc(Cl)c1 [Example 51, 2-(5-Chloro-pyridin-3-yloxy)-N-(5-chloro-thiophen-2-ylmethyl)-nicotinamide]
81 to 83 | Cc1ccc(CNC(=O)c2cccnc2Oc2cncc(Cl)c2)s1 [Example 52, 2-(5-Chloro-pyridin-3-yloxy)-N-(5-methyl-thiophen-2-ylmethyl)-nicotinamide]
103 to 105 | Cc1ccc(CNC(=O)c2cccnc2Oc2cncc(Cl)c2)o1 [Example 53, 2-(5-Chloro-pyridin-3-yloxy)-N-(5-methyl-furan-2-ylmethyl)-nicotinamide]
94 to 96 | O=C(NCc1cc(Cl)cs1)c1cccnc1Oc1cncc(Cl)c1 [Example 55, 2-(5-Chloro-pyridin-3-yloxy)-N-(4-chloro-thiophen-2-ylmethyl)-nicotinamide]
160 to 162 | O=C(NCc1cc2ccccc2s1)c1cccnc1Oc1cncc(Cl)c1 [Example 56, N-Benzo[b]thiophen-2-ylmethyl-2-(5-chloro-pyridin-3-yloxy)-nicotinamide]
111 to 113 | O=C(NCc1ccc(Cl)o1)c1cccnc1Oc1cncc(Cl)c1 [Example 57, N-(5-Chloro-furan-2-ylmethyl)-2-(5-chloro-pyridin-3-yloxy)-nicotinamide]
91 to 93 | O=C(NCc1ccc(Cl)s1)c1cccnc1Oc1ccc(F)cc1 [Example 61, N-(5-Chloro-thiophen-2-ylmethyl)-2-(4-fluoro-phenoxy)-nicotinamide]
99 to 101 | O=C(NCc1cc(Cl)cs1)c1cccnc1Oc1ccc(F)cc1 [Example 62, N-(4-Chloro-thiophen-2-ylmethyl)-2-(4-fluoro-phenoxy)-nicotinamide]

From US6380218B1, “Nicotinamide derivatives” (Pfizer Inc, priority 1997, dated 2002)
